Like-named read-outs stand apart in the source and are kept apart here. A value given as a limit tells only on which side of the number the result lay.

The results in this text go back to patent US11304929B2, “Tosylacetate based compounds and derivatives thereof as PHGDH inhibitors” (priority 2017, dated 2022).

The experiment addresses PHGDH (Homo sapiens (Human), UniProt O43175). The experiment in a line: 3-Phosphoglycerate Dehydrogenase (PHGDH) Fluorescence Intensity Assay, run at two NAD/3-PG ratios: PHGDH_HIGH_NAD/3-PG (250 μM NAD/500 μM 3-PG) and PHGDH_500_NAD/3-PG (500 μM NAD/500 μM 3-PG). Format: biochemical.
The mark [1] stands for this setting: 250 μM NAD/500 μM 3-PG, read-out: IC50 (PHGDH_HIGH_NAD/3-PG).
The mark [2] stands for this setting: 500 μM NAD/500 μM 3-PG, read-out: IC50 (PHGDH_500_NAD/3-PG).

PHGDH, sequence (O43175 2-533 limits assumed): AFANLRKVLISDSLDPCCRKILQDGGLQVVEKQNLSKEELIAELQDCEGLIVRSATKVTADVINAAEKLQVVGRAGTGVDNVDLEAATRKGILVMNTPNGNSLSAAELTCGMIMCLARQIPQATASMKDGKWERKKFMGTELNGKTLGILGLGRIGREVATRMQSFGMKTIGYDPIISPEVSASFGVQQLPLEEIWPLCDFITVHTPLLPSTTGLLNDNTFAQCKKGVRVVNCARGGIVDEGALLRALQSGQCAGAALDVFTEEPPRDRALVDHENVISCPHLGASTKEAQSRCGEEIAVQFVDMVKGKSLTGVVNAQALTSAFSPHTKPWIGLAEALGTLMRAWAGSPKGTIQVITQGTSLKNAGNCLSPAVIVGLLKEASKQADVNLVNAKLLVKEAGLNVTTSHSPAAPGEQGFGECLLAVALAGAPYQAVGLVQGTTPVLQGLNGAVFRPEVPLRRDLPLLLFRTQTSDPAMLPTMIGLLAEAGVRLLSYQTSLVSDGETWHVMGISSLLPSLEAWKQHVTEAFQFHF
Excerpt: This assay is used to identify compounds which inhibit the enzymatic activity of PHGDH which catalyzes the reaction of 3-Phosphoglycerate (3-PG) and NAD to 3-Phosphohydroxypyruvate and NADH.
The produced NADH is used in a coupled reaction for Diaphorase mediated reduction of Resazurin to Resorufin which can be measured in a Fluorescence Intensity readout.
The full length version of PHGDH enzyme was expressed in E. coli with an N-terminal HIS-tag and a TEV cleavage site.
The 3-Phosphoglycerate substrate was purchased from Sigma. NAD, Diaphorase and Resazurin were purchased from Sigma Aldrich.
Compounds are dispensed onto assay plates (black, low volume, flat bottom 384 well, Corning) using an Access Labcyte Workstation with the Labcyte Echo 55× from a DMSO solution. For the chosen highest assay concentration of 100 μM, 150 nl of compound solution are transferred from a 10 mM DMSO compound stock solution. A series of 11 concentrations (10 1:5 steps) is transferred for each compound.
The assay has been performed at two different NAD/3-PG ratios (final assay concentrations):
Plates are kept at room temperature. After 240 minutes incubation time the fluorescence signal is measured in a PerkinElmer Envision HTS Multilabel Reader with an excitation wavelength at 530-560 nm and an emission wavelength at 590 nm.
Each plate contains negative controls (diluted DMSO instead of test compound; reaction as described with PHGDH protein) and positive controls (diluted DMSO instead of test compound; reaction as described with buffer instead of PHGDH protein). Negative and positive control values are used for normalization.
IC50 values are calculated and analyzed in the MEGALAB IC50 application using a 4 parametric logistic model.

Turning to `COC(=O)CS(=O)(=O)c1ccc([C@@H](C)NC(=O)c2cc(-c3ccccc3)nn2C)cc1` [Example 02-002, methyl 2-{4-[(1R)-1-[(1-methyl-3-phenyl-1H-pyrazol-5-yl)formamido]ethyl]benzenesulfonyl}acetate], the IC50 under setting [1] stood at 1360 nM.
Same read-out and setting: the value for `CCOC(=O)CS(=O)(=O)c1ccc([C@@H](C)NC(=O)c2cc(-c3ccccc3)nn2C)cc1` [Example 02-003, ethyl 2-{4-[(1R)-1-[(1-methyl-3-phenyl-1H-pyrazol-5-yl)formamido]ethyl]benzenesulfonyl}acetate] was 3180 nM; that for `COC(=O)CS(=O)(=O)c1ccc([C@@H](C)NC(=O)c2cc(-c3cccc4cc[nH]c34)nn2C)cc1` [Example 02-006, methyl 2-{4-[(1R)-1-{[3-(1H-indol-7-yl)-1-methyl-1H-pyrazol-5-yl]formamido}ethyl]benzenesulfonyl}acetate] was 1270 nM; that for `COC(=O)CS(=O)(=O)c1ccc([C@H](C)NC(=O)c2cc(-c3ccccc3)nn2C)cn1` [Example 02-009, methyl 2-({5-[(1S)-1-[(1-methyl-3-phenyl-1H-pyrazol-5-yl)formamido]ethyl]pyridin-2-yl}sulfonyl)acetate] was more than 100000 nM.
Same read-out and setting: with `COc1cc(-c2cc(C(=O)N[C@H](C)c3ccc(S(=O)(=O)CC(=O)OC(C)C)cc3)n(C)n2)ccc1F` [Example 02-012, propan-2-yl 2-{4-[(1R)-1-{[3-(4-fluoro-3-methoxyphenyl)-1-methyl-1H-pyrazol-5-yl]formamido}ethyl]benzenesulfonyl}acetate] the figure was 3720 nM; with `COc1cc(-c2cc(C(=O)N[C@H](C)c3ccc(S(=O)(=O)CC(=O)OC(C)C)cc3)n(C)n2)ccc1Cl` [Example 02-013, propan-2-yl 2-{4-[(1R)-1-{[3-(4-chloro-3-methoxyphenyl)-1-methyl-1H-pyrazol-5-yl]formamido}ethyl]benzenesulfonyl}acetate], 6120 nM; with `CC(C)OC(=O)CS(=O)(=O)c1ccc([C@@H](C)NC(=O)c2cc(-c3ccc(Cl)c(Cl)c3)nn2C)cc1` [Example 02-014, propan-2-yl 2-{4-[(1R)-1-{[3-(3,4-dichlorophenyl)-1-methyl-1H-pyrazol-5-yl]formamido}ethyl]benzenesulfonyl}acetate], 73300 nM.
On the same count and under the same terms, with `Cc1cc(-c2cc(C(=O)N[C@H](C)c3ccc(S(=O)(=O)CC(=O)OC(C)C)cc3)n(C)n2)ccc1F` [Example 02-015, propan-2-yl 2-{4-[(1R)-1-{[3-(4-fluoro-3-methylphenyl)-1-methyl-1H-pyrazol-5-yl]formamido}ethyl]benzenesulfonyl}acetate] the figure was 5490 nM; with `CC(C)OC(=O)CS(=O)(=O)c1ccc([C@@H](C)NC(=O)c2cc(-c3ccc(F)c(F)c3)nn2C)cc1` [Example 02-016, propan-2-yl 2-{4-[(1R)-1-{[3-(3,4-difluorophenyl)-1-methyl-1H-pyrazol-5-yl]formamido}ethyl]benzenesulfonyl}acetate], more than 20000 nM.
On to `CC(C)OC(=O)CS(=O)(=O)c1ccc([C@@H](CO)NC(=O)c2cc(-c3ccc(F)cc3)nn2C)cc1` [Example 02-017, propan-2-yl 2-{4-[(1S)-1-{[3-(4-fluorophenyl)-1-methyl-1H-pyrazol-5-yl]formamido}-2-hydroxyethyl]benzenesulfonyl}acetate], for which the IC50 under setting [1] is 7710 nM.
With `Cc1cc(Cl)c2cc(C(=O)N[C@H](C)c3ccc(S(=O)(=O)CC(=O)O)cc3)n(C)c2c1C` [Example 03-003, 2-{4-[(1R)-1-[(4-chloro-1,6,7-trimethyl-1H-indol-2-yl)formamido]ethyl]benzenesulfonyl}acetic acid], the IC50 amounted to 13 nM under setting [1] and 22 nM under setting [2].
For `C[C@@H](NC(=O)c1cc2c(Cl)cc(-c3cnn(C)c3)cc2n1C)c1ccc(S(=O)(=O)CC(=O)O)cc1` [Example 03-004, 2-{4-[(1R)-1-{[4-chloro-1-methyl-6-(1-methyl-1H-pyrazol-4-yl)-1H-indol-2-yl]formamido}ethyl]benzenesulfonyl}acetic acid], in that order: 20 nM and 29 nM.
Regarding `C#Cc1cc(Cl)c2cc(C(=O)NC(C)c3ccc(S(=O)(=O)CC(=O)O)cc3)n(C)c2c1` (stereo not drawn) [Example 03-007, 2-(4-{1-[(4-chloro-6-ethynyl-1-methyl-1H-indol-2-yl)formamido]ethyl}benzenesulfonyl)acetic acid], the IC50 under setting [1] amounted to 29 nM.
Still for that read-out and setting: the value for `CC(NC(=O)c1cc2c(Cl)cc(I)cc2n1C)c1ccc(S(=O)(=O)CC(=O)O)cc1` (stereo not drawn) [Example 03-008, 2-(4-{1-[(4-chloro-6-iodo-1-methyl-1H-indol-2-yl)formamido]ethyl}benzenesulfonyl)acetic acid] was 24 nM.
On to `Cc1nc2c(cc(C(=O)N[C@H](C)c3ccc(S(=O)(=O)CC(=O)O)cc3)n2C)c(Cl)c1Cl` [Example 03-010, 2-{4-[(1R)-1-({4,5-dichloro-1,6-dimethyl-1H-pyrrolo[2,3-b]pyridin-2-yl}formamido)ethyl]benzenesulfonyl}acetic acid], for which the IC50 under setting [1] is 170 nM.
Turning to `Cc1cc2c(cc(C(=O)N[C@H](CO)c3ccc(S(=O)(=O)CC(=O)O)cc3)n2C)c(F)c1F` [Example 03-012, 2-{4-[(1S)-1-[(4,5-difluoro-1,6-dimethyl-1H-indol-2-yl)formamido]-2-hydroxyethyl]benzenesulfonyl}acetic acid], the IC50 runs as follows: under setting [1], 8 nM; under setting [2], 17 nM.
Regarding `Cc1cc(Cl)c2cc(C(=O)N[C@H](CO)c3ccc(S(=O)(=O)CC(=O)O)cc3)n(C)c2n1` [Example 03-013, 2-{4-[(1S)-1-({4-chloro-1,6-dimethyl-1H-pyrrolo[2,3-b]pyridin-2-yl}formamido)-2-hydroxyethyl]benzenesulfonyl}acetic acid], under setting [1], the IC50 was found to be 35 nM.
In the case of `Cc1cc2c(cc(C(=O)N[C@H](C)c3ccc(S(=O)(=O)CC(=O)O)cc3)n2C)c(Cl)c1F` [Example 03-014, 2-{4-[(1R)-1-[(4-chloro-5-fluoro-1,6-dimethyl-1H-indol-2-yl)formamido]ethyl]benzenesulfonyl}acetic acid], the IC50 was found to be 5 nM under setting [1] and 7 nM under setting [2].
As to `Cc1cc(Cl)c2cc(C(=O)N[C@H](C)c3ccc(S(=O)(=O)CC(=O)O)cc3)n(C)c2n1` [Example 03-015, 2-{4-[(1R)-1-({4-chloro-1,6-dimethyl-1H-pyrrolo[2,3-b]pyridin-2-yl}formamido)ethyl]benzenesulfonyl}acetic acid], under setting [1], the IC50 is 41 nM.
As to `Cc1cc2c(cc(C(=O)N[C@H](CO)c3ccc(S(=O)(=O)CC(=O)O)cc3)n2C)c(Cl)c1F` [Example 03-016, 2-{4-[(1S)-1-[(4-chloro-5-fluoro-1,6-dimethyl-1H-indol-2-yl)formamido]-2-hydroxyethyl]benzenesulfonyl}acetic acid], the IC50 was determined as 5 nM under setting [1] and 7 nM under setting [2].
With `CN1CCN(c2cc(Cl)c3cc(C(=O)N[C@H](CO)c4ccc(S(=O)(=O)CC(=O)O)cc4)n(C)c3c2)CC1` [Example 03-017, 2-{4-[(1S)-1-{[4-chloro-1-methyl-6-(4-methylpiperazin-1-yl)-1H-indol-2-yl]formamido}-2-hydroxyethyl]benzenesulfonyl}acetic acid], the IC50 under setting [1] was 40 nM and the IC50 under setting [2] was determined as 146 nM.
